The values below come from article PMC10384675, “Novel Thiazolidine-2,4-dione-trimethoxybenzene-thiazole Hybrids as Human Topoisomerases Inhibitors” (Pharmaceuticals, 2023).

Holding throughout (type): cell-based, human
Experiment [1] concerns MCF-7 cells. Description: Mitochondria and cytochrome c immunostaining. The settings on record: at IC50 value, 24 h. An excerpt: In order to establish whether the observed cell death could be ascribed to the induction of the apoptotic pathway, we performed immunostaining assays using an anti-cytochrome c (cyt c) antibody and the mitochondrial probe MitoTracker Deep Red FM, which would allow us to verify whether cyt c was released from mitochondria to the cell cytoplasm or not. In Figure 6, panels B,C, it is possible to visualize the intracellular localization of cyt c (green fluorescence) and mitochondria (red fluorescence). […] Indeed, as visible in the overlay channel (panel D), the two fluorescence signals (red and green) were no longer superimposable.
Cells grown on glass coverslips in full medium were serum-deprived for 24 h, then the compound (or only vehicle) was added (24 h, 7e at its IC50 value). Next, cells were incubated with a staining solution containing MitoTracker® Deep Red FM probe (MitoTracker® Mitochondrion-Selective Probes, Invitrogen European Headquarters, Paisley PA4 9RF, UK; fluorescence excitation = 644, fluorescence emission = 665) for 20 min, at 37 °C. After a PBS wash, cells were fixed (cold methanol, 15 min at −20 °C) and incubated with the mouse anti-cytochrome c (556 433) primary antibody, purchased from BD, diluted in the blocking solution (4 °C/overnight), as described in [60]. […]

Experiment [2] has as its system MCF-7 breast cancer cells. Description: MTT cell viability assay, MCF-7. The protocol: All of the synthesized compounds (7a–f) were studied to test their anticancer activity toward the estrogen receptor-positive (ER+) MCF-7 and the triple-negative MDA-MB-231 breast cancer cells (ER-, PR- and HER-2/Neu not overexpressed) and A2058 melanoma cells. Cells were incubated for 72 h with different concentrations of the compounds, and then the viability was checked by the MTT assay. […] Moreover, we checked the cytotoxicity of all of the synthesized compounds against the human MCF-10A non-malignant breast epithelial cells and mouse BALB/3T3 embryonic fibroblasts, in order to evaluate their selectivity on cancer cells.
The used cell lines (breast cancer cell lines MCF-7 and MDA-MB-231, melanoma cell line A2058 and human mammary epithelial cell line MCF-10A) were obtained from American Type Culture Collection (ATCC, Manassas, VA, USA) and cultured as already reported. The mouse BALB/3T3 embryonic fibroblasts were also purchased from American Type Culture Collection (ATCC, Manassas, VA, USA) and cultured in DMEM high glucose supplemented with 10% bovine calf serum (BCS) and 100 U mL^−1 penicillin/streptomycin.
MTT assay (Sigma Aldrich (St. Louis, MO, USA)) was performed for evaluating the in vitro anticancer activities of the compounds, as previously indicated. Different concentrations (0.1, 1, 10, 25, 50, and 100 μM) of the compounds were employed, with a 72 h endpoint. IC50 values were obtained from the percent (%) of control using GraphPad Prism 9 (GraphPad Software, La Jolla, CA, USA).

In experiment [3] the test system is caspase-8. Description: Caspase-Glo assay, caspase-8. The note with it: MCF-7 cells, at IC50 value, 24 h, vs vehicle. The method, then:
Once established that mitochondria were damaged and cyt c released into the cytoplasm, we evaluated the ability of compound 7e treatment (used at its IC50 value) in modulating caspase activity.
The caspase-Glo Assay (Caspase-Glo® 3/7, 8 and 9 Assay Systems, Promega Corporation, Madison, WI) was used to detect caspase-3/7, -8 and -9 activities, as reported in [82]. Briefly, cells were grown in white-walled 96-well plates, treated with the compound, and 100 µL of each […] was added.
Figure 7 Caspase activity in MCF-7 cells. […] Columns mean, bars SD; * p < 0.001; n.s., not significant (treated vs. CTRL).

Experiment [4] concerns MCF-7 cells. Description: TUNEL assay. The note with it: at IC50 value, 24 h. An excerpt:
Numerous data in the literature indicate that topoisomerase inhibitors are among the most efficient inducers of apoptosis. […] As reference molecule, we adopted ellipticine for this assay, also. […] In contrast, no fluorescence was visible in the DMSO-treated cells used as negative control (Figure 5, CTRL, panel B). These outcomes indicated the ability of the studied compound to induce DNA damage, as ellipticine did, triggering cancer cells death.
Cell apoptosis was detected by means of the TUNEL assay, following the manufacturer’s protocols (CF™488A TUNEL Assay Apoptosis Detection Kit, Biotium, Hayward, CA, USA), with few modifications, as already reported. DAPI staining (0.2 μg/mL, Sigma Aldrich, Milan, Italy) was used for cell nuclei. A fluorescence microscope (Leica DM 6000) was used for the observations at 20× magnification. LAS-X software allowed the acquisition and processing of all of the images, which were representative of three separate experiments.
Figure 5 TUNEL assay. MCF-7 breast cancer cells were exposed to compounds 7e and ellipticine (E) at their IC50 values, or to the vehicle (DMSO) for 24 h. Then, they were further processed, as reported in Section 4, and imaged under a fluorescence microscope (20× magnification). Panels (A), DAPI λex,em= 350 nm/460 nm; panels (B), CF^TM488A, λex,em = 490 nm/515 nm; panels (C) show the merge channel.

For `COc1cc(/C=C2\SC(=O)N(CC(=O)Nc3nc(-c4ccc(Br)cc4)cs3)C2=O)cc(OC)c1OC` [compound 7e, (Z)-2-(5-(3,4,5-Trimethoxybenzylidene)thiazolidin-2,4-dion-3-yl)-N-(4-(4-bromophenyl)thiazol-2-yl)acetamide], the “cytochrome c release from mitochondria into the cytoplasm” value in experiment [1] was “cyt c was released into the cell cytoplasm”. The half-maximal inhibitory concentration (IC50) in experiment [2] (Homo sapiens, MCF7, MTT, 72 h) was 3.1 ± 0.6 µM. Moreover, the “fold more active against MCF-7 than against mouse BALB/3T3 embryonic fibroblasts” value in experiment [2] (MCF-7 vs BALB/3T3 IC50) is “about 11 fold”. In addition, the caspase-8 activity entry in experiment [3] was “no change”. Further, the “apoptosis (TUNEL, green nuclear fluorescence)” value in experiment [4] is on record as “had undergone the apoptotic process”.

Usually IC50 stands for the concentration at which inhibition is half-maximal. Read a low IC50 as greater potency.
